“Also recorded” adds a separate entry of the source. Where two headings read alike, the source gives them in different places. Each block holds one compound with its values, some of them ahead of it.
Assays:
GBM39 single cells = assay: Validation of the Gluc-Bio uptake; format: cell-based, human; conditions: 20 ug/mL Gluc-Bio, 20 min; 17.5 mM vs 25 mM glucose; 37° C. vs 4° C.
Experimental: FIG. 4C is a graph of cell uptake experiments using the immunofluorescence assay depicted in FIG. 2B to assay Gluc-Bio uptake in GBM39 primary neurosphere cells at 37° C. in the presence of […] glucose and 25 mM glucose, and at 4° C. at 17.5 mM glucose as indicated, showing that Gluc-Bio competes with glucose, according to embodiments of the present invention.
GBM39 single cells were suspended in normal media (17.5 mM glucose) or high glucose media (25 mM glucose) at a concentration of 0.5 M cells/mL. These cells were incubated with 20 ug/mL of Gluc-Bio at 37° C. or 4° C. for 20 min. After incubation, cells were washed with cold PBS for three times and then lysed for quantifying the Gluc-Bio.

hexokinase = assay: Coupled enzyme kinetics measurement (hexokinase/G6PDH, NADH absorption at 340 nm); format: biochemical
From the text: Enzymes and substrate solutions from a glucose assay kit (Sigma-Aldrich) were used without purification. […] First, hexokinase converts glucose into glucose-6-phosphate, which consumes one equivalent of ATP. Then, the glucose-6-phosphate is converted to gluconate-6-phosphate by glucose-6-phosphate dehydrogenase (G6PDH). At the same time, this process converts NAD to NADH, which has a distinct absorption band at 340 nm. By continuously measuring the solution absorption, the kinetics of the first reaction can be indirectly monitored. […] This will result in a much slower generation of NADH. […] This proves that Gluc-Bio can bind to hexokinase and could be a substrate. […] In this experiment, the amount of ATP was controlled to be much less than that of glucose. If Gluc-Bio is simply an inhibitor and cannot be converted by hexokinase, it will not consume the ATP pool in the solution, and the final amount of NADH will be the same as that of glucose alone.

GBM39 cells = assay: SCBC multiplex metabolite/protein assay before and after erlotinib; format: cell-based, human; conditions: 24 h erlotinib treatment (1 μM)
Experimental: Using a SCBC as shown in FIGS. 1A and 1B and further disclosed herein, simultaneous quantification of a panel of metabolites and proteins, including cAMP, cGMP, glucose uptake, glutathione along with phosphofructokinase (PFK), phospho-acetyl-CoA Caraboxylase (pACAC), phospho-liver kinase B1 (pLKB1), phosphoinositide-dependent kinase 1 (PDK), hexokinase 2 (HK2), pyruvate kinase M2 (PKM2), and phospho-carbohydrate kinase family protein (pPFKB2) was performed in single cells separated from the GBM39 neurosphere tumor model. […] For the drug treatment, 1 million cells were suspended in 10 mL of media and were cultured for several days to form neurospheres. […] The cells were then treated for designated periods of time and processed for tests. Cell loading. The upper channels were briefly rinsed with cell culture medium to minimize perturbation to the cells. […] The suspension was loaded into the SCBC device and compartmentalized into 310 isolated microchambers with single cell or defined number of cells in each chamber. The cell loading step results in a random distribution of different numbers of cells in different chambers, the statistical distribution can be adjusted by varying the loading concentration and the flow speed. […] The extra cells were washed away by 1×PBST. The images of each chamber were recorded using a microscope-CCD camera and used for subsequent cell counting.

U87EGFRvIII cells [1] = system: U87EGFRvIII cells
Experimental: A multiplex assay incorporating the glutamine uptake assay according to embodiments of the present invention was performed using a SCBC platform in U87 human glioblastoma cells having amplified epidermal growth factor receptor (EGFR) expression.
U87/EGFRV3 cells were provided by Prof. Paul S. Mischel (UCSD, San Diego, U.S.A.) and cultured in Dulbecco's modified eagle media (DMEM, Gibco, ThermoFisher Scientific, Grand Island, N.Y., U.S.A.) supplemented with 10% of fetal bovine serum (Thermo Fisher Scientific) and 100 U/mL of penicillin and streptomycin in a humidified 5% CO2 (v/v) incubator, at 37° C.
In order to better understand the integrated single cell metabolic/proteomic data, a simplified semi-quantitative metabolic model (FIG. 16A) was developed. The focus of this model includes the glycolysis pathway and the TCA cycle, which cover the major contributors of cellular energy generation. Glucose is used by cells for many tasks, but by combining the measurement of glucose uptake with measurements of those enzymes that process glucose for energy production and lactate production, an estimation may be made of the contributions of glucose to glycolysis and to the TCA cycle (FIGS. 16A-16B). It assumed that each glucose molecule consumed yields 8 ATP equivalents through glycolysis, and an additional 22 ATP equivalents through the TCA cycle. The numbers here are not the actual ATP production number, but an energy-currency conversion. The glycolysis part generates 2 ATP and 2 NADH molecules per glucose, and each NADH is ultimately worth 3 ATP, thus making 8 ATP total. […] For glutamine that is taken up by the cell, there are multiple possible outcomes. It can enter the TCA cycle to generate energy, or it can be exported in exchange for other amino acids, or participate in biosynthesis of glutathione and proteins, as examples. On this basis, glutamine may be considered as a special currency, which can either be used directly by the cell to produce energy, or in exchange of other necessary nutrients or to perform some crucial metabolic function. From a global point of view, the active uptake of glutamine reflects a metabolic demand from the cell, regardless how it is used. In order to have an integrated picture of the potential energy production from glutamine and glucose, we simply assume that all glutamine participates in the TCA cycle, so that each glutamine molecule affords 8.5 ATP equivalents. To calculate the energy production for each pathway, glucose and glutamine uptake levels as well as related metabolic enzyme levels are normalized into the range between 0 and 1 across all samples. Subsequently, the normalized analyte levels (a) were used and a steady-state approximation (FIG. 16E) to calculate the energy production rate for each step (FIG. 16B). Several energy indices were defined based on the model. The energy production index (EPI) assesses the total energy production rate through glucose and glutamine metabolism, while the energy source index (ESI) measures the energy contribution ratio between glucose and glutamine. The glycolysis index (GI) weighs the contribution of glycolysis in total glucose-based energy production, and depends upon glucose uptake, as well as the levels of phosphofructokinase (PFK) and pyruvate kinase isozyme M2 (PKM2). In addition to the energy indices, we use the cAMP and cGMP levels to define an energy frustration index (EFI), and use the GSH level to define a redox frustration index (RFI).

U87EGFRvIII cells [2] = assay: Growth curves under erlotinib; format: cell-based, human; conditions: 1 uM erlotinib
From the text: U87/EGFRV3 cells were provided by Prof.

U87 cells = assay: Glutamine kit assay (Abcam, ab83389), cells incubated with Compound 3; format: cell-based, human; conditions: U87 cells alone vs incubated with Compound 3
cell growth = assay: Cell toxicity of Compound 3 Ad-Glutamine analog (cell numbers normalized to control); format: cell-based; conditions: indicated concentrations, FIG. 5F
From the text: FIG. 5F is a graph showing cell toxicity of the Compound 3-Ad-Glutamine analog at the indicated concentrations with cell numbers normalized to the control sample, according to embodiments of the present invention.

[3] = molecular target: T1, SLC1A5 neutral amino acid transporter (Homo sapiens, UniProt Q15758); assay: Uptake of Compound 3 with the SLC1A5 transporter inhibited (sodium free, siRNA); format: cell-based; conditions: U87 cells
T1 construct: Compound 3 was further analyzed for uptake in U87 cells; endogenous in cells; host or cells: U87 (U87/EGFRV3) glioblastoma cells
T1 sequence (Q15758 1-541): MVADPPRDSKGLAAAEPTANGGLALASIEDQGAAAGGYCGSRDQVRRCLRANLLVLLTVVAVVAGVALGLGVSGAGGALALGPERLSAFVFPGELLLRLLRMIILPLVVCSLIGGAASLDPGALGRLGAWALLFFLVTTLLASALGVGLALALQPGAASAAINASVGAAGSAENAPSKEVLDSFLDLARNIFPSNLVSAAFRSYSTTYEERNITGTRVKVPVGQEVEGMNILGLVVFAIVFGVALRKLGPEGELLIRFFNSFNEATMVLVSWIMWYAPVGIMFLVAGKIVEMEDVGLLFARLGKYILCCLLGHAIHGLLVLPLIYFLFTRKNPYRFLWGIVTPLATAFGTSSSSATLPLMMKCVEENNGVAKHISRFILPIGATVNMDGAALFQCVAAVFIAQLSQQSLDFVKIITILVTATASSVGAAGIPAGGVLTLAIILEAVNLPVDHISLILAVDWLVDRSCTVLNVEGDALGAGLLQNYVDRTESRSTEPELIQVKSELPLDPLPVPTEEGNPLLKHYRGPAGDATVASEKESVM
Experimental: In some embodiments of the present invention, a method for measuring glutamine uptake in a cell includes incubating the cell with a glutamine analog, followed by lysis of the cell, and quantification of the amount of the glutamine analog in the cell. […] These 8 glutamine analogs (adamantane conjugates) were assayed for their ability to substitute for glutamine. […] As such, the Compound 3 Ad-Glutamine analog is a validated substitute for glutamine.

U87/EGFRV3 cells = assay: Glutamine analog uptake (Cyclodextrin-Cy3 / Adamantane-BHQ2 FRET readout); format: cell-based, human; conditions: 1 mM analog, 20 min; with glutamine at 4° C. and 37° C., without glutamine at 37° C.
Experimental: FIG. 5B is a graph of cell uptake experiments using the immunofluorescence assay depicted in FIG. 2C to assay Compounds 1-8 as shown in FIG. 5A in the presence of glutamine at 4° C. (left bars) and 37° C. (middle bars), and in the absence of glutamine at 37° C. (right bars), according to embodiments of the present invention.
U87/EGFRV3 single cells were resuspended in DMEM media or glutamine-free DMEM media (Thermo Fisher Scientific) with 1 mM of glutamine analog and incubated at 37° C. or 4° C. for 20 min. Subsequently, the cells were collected via centrifugation (500 g, 5 min) and washed with cold PBS for three times. Then, the cells were lysed using cell lysis buffer (Cell Signaling, Boston, Mass., U.S.A.). To quantify the analog uptake, the lysate was mixed with an Adamantane-BHQ2 solution (100 nM in water) incubated on the glass slide with surface hybridized Cyclodextrin-Cy3-DNA at room temperature for 1 hr. the glass slide was then washed and spin dried. The fluorescence signal on the glass slide was read out using an Axon GenePix 4400A scanner.

generation of NADH in the presence of Gluc-Bio (hexokinase; 0.5 mM glucose and 0.5 mM Gluc-Bio vs 0.5 mM glucose alone): much slower than that of glucose alone | final amount of NADH generated (hexokinase; ATP much less than glucose, addition of Gluc-Bio): less NADH was generated | substrate for hexokinase (hexokinase; conclusion from both experiments): is a substrate for hexokinase
Structure (SMILES): O=C(CCCC[C@@H]1SC[C@@H]2NC(=O)N[C@@H]21)N[C@H]1C(O)O[C@H](CO)[C@@H](O)[C@@H]1O (stereo partly drawn) [Gluc-Bio]
uptake of Gluc-Bio (GBM39 single cells): inhibited by increasing the extracellular glucose concentration and by decreasing the temperature

Structure (SMILES): C#Cc1cccc(Nc2ncnc3cc(OCCOC)c(OCCOC)cc23)c1 [erlotinib]
activities of HK2 (GBM39 cells): sharply reduced | level of GSH (GBM39 cells): sharply reduced | level of glucose uptake (GBM39 cells): sharply reduced | glutamine uptake (U87EGFRvIII cells [1]; 1 uM erlotinib): increased | glucose uptake (U87EGFRvIII cells [1]; 1 μM erlotinib): repressed | levels of PFK and PKM2 (U87EGFRvIII cells [1]; 1 μM erlotinib): increased | glucose uptake (U87EGFRvIII cells [1]; higher dose erlotinib (10 μM)): decreased | glutamine uptake (U87EGFRvIII cells [1]; higher dose erlotinib (10 μM)): decreased | metabolic enzymes (U87EGFRvIII cells [1]; higher dose erlotinib (10 μM)): repressed | cellular energy production (EPI) (U87EGFRvIII cells [1]; higher drug concentration (10 μM)): inhibits cellular energy production | cell growth (number of cells as a function of days) (U87EGFRvIII cells [2]): not inhibited; also recorded: does not inhibit

cell uptake of Compound 3 ([3]; siRNA knock-down of SLC1A5): inhibition of cell uptake
Structure (SMILES): NC(CCCNC(=O)C12CC3CC(CC(C3)C1)C2)C(=O)O (stereo not drawn) [Compound 3, 5-(adamantane-1-carboxamido)-2-aminopentanoic acid]
competition with cellular glutamine (absorbance) (U87 cells): competes with the cellular glutamine | cell growth / cell toxicity (cell growth): does not inhibit cell growth | Compound 3 fluorescence (uptake) ([3]; sodium free conditions): inhibition of Compound 3 fluorescence (uptake) | cell uptake of glutamine analog: dependence on temperature and on glutamine (U87/EGFRV3 cells): temperature-dependency and glutamine-dependency

Structure (SMILES): N[C@@H](CC(=O)NC12CC3CC(CC(C3)C1)C2)C(=O)O [Compound 8, N4-(adamantan-1-yl)asparagine]
cell uptake of glutamine analog: dependence on temperature and on glutamine (U87/EGFRV3 cells): temperature-dependency and glutamine-dependency
